The results in this text go back to publication PMC7587970, “Lanostane Triterpenoids from the Fruiting Bodies of Fomes officinalis and Their Anti-Inflammatory Activities” (Molecules, 2020).

For this assay, the target named is T1, cyclooxygenase (COX-2) (Ovis aries, UniProt P79208).
T1 construct: gene PTGS2
T1 sequence (P79208 17-603): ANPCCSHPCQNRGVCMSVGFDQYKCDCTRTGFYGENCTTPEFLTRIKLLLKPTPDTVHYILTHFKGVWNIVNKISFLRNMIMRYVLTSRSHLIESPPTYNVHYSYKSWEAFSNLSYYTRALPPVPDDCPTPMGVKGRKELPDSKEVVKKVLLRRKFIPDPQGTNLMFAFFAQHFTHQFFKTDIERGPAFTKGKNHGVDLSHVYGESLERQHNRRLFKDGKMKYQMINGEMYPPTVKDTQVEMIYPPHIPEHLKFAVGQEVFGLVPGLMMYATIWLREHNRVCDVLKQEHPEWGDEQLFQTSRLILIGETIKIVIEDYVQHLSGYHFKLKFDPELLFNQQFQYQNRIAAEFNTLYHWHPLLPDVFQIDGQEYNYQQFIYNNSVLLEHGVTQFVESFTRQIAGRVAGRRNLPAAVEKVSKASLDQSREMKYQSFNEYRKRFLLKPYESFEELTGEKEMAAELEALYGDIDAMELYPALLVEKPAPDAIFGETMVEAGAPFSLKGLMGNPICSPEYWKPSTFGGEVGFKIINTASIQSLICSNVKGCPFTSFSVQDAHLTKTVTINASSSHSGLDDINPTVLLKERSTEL
The experiment in a line: COX colorimetric inhibitor screening assay kit (Cayman), ovine recombinant COX-2. The format is biochemical.

Where two headings read alike, the source gives them in different places.

Turning to `C[C@@H]1C[C@]2(OC[C@]34[C@H](O)C=C5C(=CC[C@H]6C(C)(C)[C@H](OC(=O)CC(=O)O)CC[C@]56C)[C@]3(C)CC[C@H]14)OC(=O)[C@@H](C)[C@@H]2C` [compound 3, officimalonic acid K], the half-maximal inhibitory concentration (IC50) (as a rule, the concentration needed to halve the response being measured) (read-out: IC50) is 30.1 µM.
On the same count and under the same terms, the same measure for `COC(=O)CC(=O)O[C@@H]1CC[C@]2(C)C3=C(C(=O)C[C@H]2C1(C)C)[C@]1(C)CC[C@H]([C@H](C)C[C@@H]2OC(=O)C(C)=C2C)[C@@]1(C)[C@H](O)C3` [compound 5, officimalonic acid M]: 42.3 µM.
As to `COc1ccc2cc([C@H](C)C(=O)O)ccc2c1` [naproxen, reference compound], the IC50 is 8.2 µM.
